# Experimental data: US7491819B1 (priority 2004, dated 2009)
# Target: T1, HIV-integrase (Human immunodeficiency virus type 1 group M subtype B, UniProt P12497)
# T1 construct: Recombinant integrase (0.26 ng) was incubated with the beads
# Assay: HIV-Integrase Inhibition Activity (SPA bead strand-transfer assay)
# Assay type: biochemical
# Conditions: Table 1; read-out: Activity (HIV-integrase inhibition, IC50 class)
# Method: HIV-Integrase Inhibition Activity. To evaluate in-vitro activity against HIV-integrase, 5 pmole of biotin labeled substrate DNA was bound to 100 μg of Streptavidin coated PVT SPA beads (Amersham Pharmacia Biotech). Recombinant integrase (0.26 ng) was incubated with the beads for 90 min at 37° C. Unbound enzyme was removed by washing the complex followed by addition of inhibitors and 0.1 fmol of P33 labeled target DNA. The reaction was stopped by adding EDTA to a final concentration of 10 mM. Samples were counted in TopCountNXT (Packard) and the CPM was used as a measure of integration. The reaction condition was as described in A. Engelman and R. Craigie, J. Virol 69, 5908-5911 (1995). The sequences of substrate and target DNA were described in Nucleic Acid Research 22, 1121-1122 (1994).
row,Compound,IC50 [µM]
1,"Cc1ccc(CNC(=O)c2nc3n(c(=O)c2O)CCOC3(C)C)cc1F [Example 248, Pyrimido[2,1-c][1,4]oxazine-2-carboxamide, N-[(3-fluoro-4-methylphenyl)methyl]-4,6,7,9-tetrahydro-3-hydroxy-9,9-dimethyl-4-oxo-]",0.002 to 0.1
2,"CNC(=O)c1ccc(-c2ccccc2CNC(=O)c2nc3n(c(=O)c2O)CCOC3(C)C)cc1 [Example 175, Pyrimido[2,1-c][1,4]oxazine-2-carboxamide, 4,6,7,9-tetrahydro-3-hydroxy-9,9-dimethyl-N-[[4′-[(methylamino)carbonyl][1,1′-biphenyl]-2-yl]methyl]-4-oxo-]",0.002 to 0.1
3,"CC1(C)OCCn2c1nc(C(=O)NCc1ncc(F)cc1F)c(O)c2=O [Example 28, Pyrimido[2,1-c][1,4]oxazine-2-carboxamide, N-[(3,5-difluoro-2-pyridinyl)methyl]-4,6,7,9-tetrahydro-3-hydroxy-9,9-dimethyl-4-oxo-]",0.002 to 0.1
4,"CCC1(CC)OCCn2c1nc(C(=O)NCc1ccc(F)cc1C(=O)NC)c(O)c2=O [Example 120, Pyrimido[2,1-c][1,4]oxazine-2-carboxamide, 9,9-diethyl-N-[[4-fluoro-2-[(methylamino)carbonyl]phenyl]methyl]-4,6,7,9-tetrahydro-3-hydroxy-4-oxo-]",0.002 to 0.1
5,"CC1(C)OCCn2c1nc(C(=O)NCc1ccccc1-c1ccccc1)c(O)c2=O [Example 160, Pyrimido [2,1-c][1,4]oxazine-2-carboxamide, N-([1,1′-biphenyl]-2-ylmethyl)-4,6,7,9-tetrahydro-3-hydroxy-9,9-dimethyl-4-oxo-]",0.002 to 0.1
6,"CSc1ccc(CNC(=O)c2nc3n(c(=O)c2O)CCOC3(C)C)cc1 [Example 143, Pyrimido[2,1-c][1,4]oxazine-2-carboxamide, 4,6,7,9-tetrahydro-3-hydroxy-9,9-dimethyl-N-[[4-(methylthio)phenyl]methyl]-4-oxo-]",0.002 to 0.1
7,"CC1(C)OCCn2c1nc(C(=O)NCc1cccc3ccsc13)c(O)c2=O [Example 138, Pyrimido[2,1-c][1,4]oxazine-2-carboxamide, N-(benzo[b]thien-7-ylmethyl)-4,6,7,9-tetrahydro-3-hydroxy-9,9-dimethyl-4-oxo-]",0.002 to 0.1
8,"COc1ccc(CNC(=O)c2nc3n(c(=O)c2O)CCOC3(C)C)c(OC)c1 [Example 232, Pyrimido[2,1-c][1,4]oxazine-2-carboxamide, N-[(2,4-dimethoxyphenyl)methyl]-4,6,7,9-tetrahydro-3-hydroxy-9,9-dimethyl-4-oxo-]",0.002 to 0.1
9,"CCC1OCCn2c1nc(C(=O)NCc1ccc(F)c(C)c1)c(O)c2=O (centres unmarked) [Example 11, Pyrimido[2,1-c][1,4]oxazine-2-carboxamide, 9-ethyl-N-[(4-fluoro-3-methylphenyl)methyl]-4,6,7,9-tetrahydro-3-hydroxy-4-oxo-]",0.002 to 0.1
10,"CC1(C)OCCn2c1nc(C(=O)NCc1ccc(F)cc1N1CCOCC1)c(O)c2=O [Example 23, Pyrimido[2,1-c][1,4]oxazine-2-carboxamide, N-[[4-fluoro-2-(4-morpholinyl)phenyl]methyl]-4,6,7,9-tetrahydro-3-hydroxy-9,9-dimethyl-4-oxo-]",0.002 to 0.1
11,"Cc1ccc(Cl)c(CNC(=O)c2nc3n(c(=O)c2O)CCOC3(C)C)c1F [Example 274, Pyrimido[2,1-c][1,4]oxazine-2-carboxamide, N-[(6-chloro-2-fluoro-3-methylphenyl)methyl]-4,6,7,9-tetrahydro-3-hydroxy-9,9-dimethyl-4-oxo-]",0.002 to 0.1
12,"COc1cccc(CNC(=O)c2nc3n(c(=O)c2O)CCOC3(C)C)c1 [Example 222, Pyrimido[2,1-c][1,4]oxazine-2-carboxamide, 4,6,7,9-tetrahydro-3-hydroxy-N-[(3-methoxyphenyl)methyl]-9,9-dimethyl-4-oxo-]",0.002 to 0.1
13,"CC1(C)OCCn2c1nc(C(=O)NCc1ccc(Cl)cn1)c(O)c2=O [Example 29, N-((5-Chloropyridin-2-yl)methyl)-3-hydroxy-9,9-dimethyl-4-oxo-4,6,7,9-tetrahydropyrimido[2,1-c][1,4]oxazine-2-carboxamide]",0.002 to 0.1
14,"CC1(C)OCCn2c1nc(C(=O)NCc1ccc(F)cc1S(=O)(=O)N1CCC1)c(O)c2=O [Example 111, Pyrimido[2,1-c][1,4]oxazine-2-carboxamide, N-[[2-(1-azetidinylsulfonyl)-4-fluorophenyl]methyl]-4,6,7,9-tetrahydro-3-hydroxy-9,9-dimethyl-4-oxo-]",0.002 to 0.1
15,"CC1(C)OCCn2c1nc(C(=O)NCc1ccc(F)cc1-c1cccc(=O)[nH]1)c(O)c2=O [Example 80, Pyrimido[2,1-c][1,4]oxazine-2-carboxamide, N-[[2-(1,6-dihydro-6-oxo-2-pyridinyl)-4-fluorophenyl]methyl]-4,6,7,9-tetrahydro-3-hydroxy-9,9-dimethyl-4-oxo-]",0.002 to 0.1
16,"CC1(C)OCCn2c1nc(C(=O)NCc1cccc(Cl)c1)c(O)c2=O [Example 226, Pyrimido[2,1-c][1,4]oxazine-2-carboxamide, N-[(3-chlorophenyl)methyl]-4,6,7,9-tetrahydro-3-hydroxy-9,9-dimethyl-4-oxo-]",0.002 to 0.1
17,"CC1(C)OCCn2c1nc(C(=O)NCc1ccccc1-c1ccc3[nH]ccc3c1)c(O)c2=O [Example 177, Pyrimido[2,1-c][1,4]oxazine-2-carboxamide, 4,6,7,9-tetrahydro-3-hydroxy-N-[[2-(1H-indol-5-yl)phenyl]methyl]-9,9-dimethyl-4-oxo-]",0.002 to 0.1
18,"COc1ccc(CNC(=O)c2nc3n(c(=O)c2O)CCOC3(C)C)cc1 [Example 244, Pyrimido[2,1-c][1,4]oxazine-2-carboxamide, 4,6,7,9-tetrahydro-3-hydroxy-N-[(4-methoxyphenyl)methyl]-9,9-dimethyl-4-oxo-]",0.002 to 0.1
19,"Cc1ncnn1-c1cc(F)ccc1CNC(=O)c1nc2n(c(=O)c1O)CCOC2(C)C [Example 82, Pyrimido[2,1-c][1,4]oxazine-2-carboxamide, N-[[4-fluoro-2-(5-methyl-1H-1,2,4-triazol-1-yl)phenyl]methyl]-4,6,7,9-tetrahydro-3-hydroxy-9,9-dimethyl-4-oxo-]",0.002 to 0.1
20,"CC1(C)OCCn2c1nc(C(=O)NCc1ccc(F)cc1S(C)(=O)=O)c(O)c2=O [Example 101, Pyrimido[2,1-c][1,4]oxazine-2-carboxamide, N-[[4-fluoro-2-(methylsulfonyl)phenyl]methyl]-4,6,7,9-tetrahydro-3-hydroxy-9,9-dimethyl-4-oxo-]",0.002 to 0.1
21,"CC1(C)OCCn2c1nc(C(=O)NCCCc1ccccc1)c(O)c2=O [Example 217, Pyrimido[2,1-c][1,4]oxazine-2-carboxamide, 4,6,7,9-tetrahydro-3-hydroxy-9,9-dimethyl-4-oxo-N-(3-phenylpropyl)-]",0.002 to 0.1
22,"CNC(=O)c1cc(F)ccc1CNC(=O)c1nc2n(c(=O)c1O)CCOC2(C)C [Example 49, Pyrimido[2,1-c][1,4]oxazine-2-carboxamide, N-[[4-fluoro-2-[(methylamino)carbonyl]phenyl]methyl]-4,6,7,9-tetrahydro-3-hydroxy-9,9-dimethyl-4-oxo-]",0.002 to 0.1
23,"CC1(C)OCCn2c1nc(C(=O)NCc1cccc(F)c1F)c(O)c2=O [Example 238, Pyrimido[2,1-c][1,4]oxazine-2-carboxamide, N-[(2,3-difluorophenyl)methyl]-4,6,7,9-tetrahydro-3-hydroxy-9,9-dimethyl-4-oxo-]",0.002 to 0.1
